The text below walks through data of patent US4496572A, “Benzo-fused thromboxane synthetase inhibitors” (Pfizer Inc., priority 1981, dated 1985).

By inhibition is commonly meant the change of the read-out against control, counted positive when it falls. Read a low inhibition as a response near the control.

One test has as its system TxB2 production. The experiment in a line: TxB2 generation in clotted whole blood after i.v. dosing (method of Patrono et al, RIA). It is filed as in vivo, rabbits. As to conditions: Oryctolagus cuniculus, iv; for inhibition at 0.3 mg/kg: 0.3 mg/kg i.v.; for inhibition at 0.1 mg/kg: 0.1 mg/kg i.v. Here is the method: The method of Patrono et al is adapted to study the generation of TxB2 is whole blood samples removed from animals prior to and following drug treatment. Briefly, blood samples are taken into glass tubes and allowed to clot at 37° C. Serum is separated by centrifugation and the samples stored at -40° C. until assayed for TxB2, when appropriate dilutions of ethanol deproteinised samples are analysed by RIA. This technique is used in experiments with the test compounds to determine intravenous potency in anaesthetised rabbits:
Male New Zealand white rabbits (2.6-5.6 kg) are anaesthetised with sodium pentobarbitone (30 mg/kg i.v.) followed by urethane (500 mg/kg i.p.). After cannulation of the trachea, a carotid artery is catheterised for collection of blood samples. The catheter is kept patent by slow infusion (0.2 ml/minute) of sterile saline. Control carotid arterial blood samples are taken 30 and 5 minutes prior to administration of the test compound or vehicle (0.9% w/v NaCl, 0.2 ml/kg) via a marginal ear vein. Three groups of rabbits are used. The first group receive 0.03 mg/kg of the test compound followed, one hour later, by 0.1 mg/kg. Similarly, the second group receive 0.3 mg/kg, followed by 1 mg/kg. The third group receive vehicle, followed one hour later by a further vehicle injection. […] At each time point, a 1 ml blood sample is taken into a glass test tube, without anticoagulant, for TxB2 determination. For the latter, the blood sample is allowed to clot during a two hour incubation at 37° C. (which preliminary experiments had shown to give maximum TxB2 production) and the serum obtained by centrifugation. Serum samples are then processed through the TxB2 RIA after deproteinisation with ethanol and dilution with Isogel Tris buffer.

A further test has as its system prostacyclin synthetase. Conditions: pre-incubation of the enzyme with the inhibitor; cited from earlier work.
The subject of test [1] is human blood platelet aggregation. Conditions: human blood platelets; cited from earlier work.
For test [2] the following is noted: rabbit, intravenous arachidonic acid; cited from earlier work.
The test system of the next test is aggregation of platelets. Conditions: rats in vivo; cited from earlier work.

Turning to `O=C(O)c1ccc2sc(Cn3ccnc3)cc2c1`, the inhibition at 0.3 mg/kg in the test with TxB2 production (0.25 h, 15 MIN post dose) came out at 96%; with TxB2 production (0.5 h, 30 MIN post dose), 89%.
Consider `Cc1c(Cn2ccnc2)sc2ccc(C(=O)O)cc12`, for which the inhibition at 0.1 mg/kg with TxB2 production (2 min, 2 MIN post dose) worked out at 100%; with TxB2 production (0.25 h, 15 MIN post dose), 98%; with TxB2 production (0.75 h, 45 MIN post dose) it was 100%; with TxB2 production (1.25 h, 75 MIN post dose) it was 98%. The inhibition at 0.3 mg/kg with TxB2 production (0.25 h, 15 MIN post dose) is 94%; in the test with TxB2 production (0.5 h, 30 MIN post dose) it was 95%.
On to `O=C(O)c1ccc2sc(Cn3ccnc3)c(Cl)c2c1`, for which the inhibition at 0.3 mg/kg in the test on TxB2 production (2 min, 2 MIN post dose) was 99%; in the test on TxB2 production (0.25 h, 15 MIN post dose), 100%; with TxB2 production (0.75 h, 45 MIN post dose), 100%; in the test with TxB2 production (1.25 h, 75 MIN post dose) it was 99%. Also, the inhibition at 0.1 mg/kg in the test with TxB2 production (0.25 h, 15 MIN post dose) was 99%; in the test with TxB2 production (0.5 h, 30 MIN post dose) it was 96%.
With `CSc1c(Cn2ccnc2)sc2ccc(C(=O)O)cc12`, the inhibition at 0.3 mg/kg in the test with TxB2 production (2 min, 2 MIN post dose) stood at 99%; with TxB2 production (0.25 h, 15 MIN post dose), 98%; in the test on TxB2 production (0.75 h, 45 MIN post dose), 97%; in the test with TxB2 production (1.25 h, 75 MIN post dose), 95%. Besides, the inhibition at 0.1 mg/kg in the test with TxB2 production (0.25 h, 15 MIN post dose) turned out to be 93%; in the test on TxB2 production (0.5 h, 30 MIN post dose) it was 95%.
`Cc1c(Cn2ccnc2)sc2cc(C(=O)O)ccc12`: the inhibition at 0.3 mg/kg in the test with TxB2 production (2 min, 2 MIN post dose) stood at 100%; in the test with TxB2 production (0.25 h, 15 MIN post dose), 100%; in the test on TxB2 production (0.75 h, 45 MIN post dose), 100%; in the test with TxB2 production (1.25 h, 75 MIN post dose), 100%. For the same compound, the inhibition at 0.1 mg/kg with TxB2 production (0.25 h, 15 MIN post dose) came out at 100%; with TxB2 production (0.5 h, 30 MIN post dose), 100%.
Regarding `Cc1c(Cc2cccnc2)sc2ccc(C(=O)O)cc12`, the inhibition at 0.3 mg/kg was determined as 98% in the test on TxB2 production (2 min, 2 MIN post dose); 99% in the test on TxB2 production (0.25 h, 15 MIN post dose); 97% with TxB2 production (0.75 h, 45 MIN post dose); 83% in the test on TxB2 production (1.25 h, 75 MIN post dose). Further, the inhibition at 0.1 mg/kg with TxB2 production (0.25 h, 15 MIN post dose) turned out to be 96%; in the test on TxB2 production (0.5 h, 30 MIN post dose) it was 85%.
For the compound `Cc1c(Cc2cccnc2)sc2cc(C(=O)O)ccc12`, the inhibition at 0.3 mg/kg in the test on TxB2 production (2 min, 2 MIN post dose) was 90%; in the test on TxB2 production (0.25 h, 15 MIN post dose), 91%; in the test with TxB2 production (0.75 h, 45 MIN post dose), 71%; with TxB2 production (1.25 h, 75 MIN post dose) it was 52%. Further, the inhibition at 0.1 mg/kg amounted to 76% in the test on TxB2 production (0.25 h, 15 MIN post dose) and 46% in the test on TxB2 production (0.5 h, 30 MIN post dose).
As to `Cc1c(Sc2cccnc2)sc2ccc(C(=O)O)cc12`, the inhibition at 0.3 mg/kg in the test with TxB2 production (2 min, 2 MIN post dose) was 98%; in the test with TxB2 production (0.25 h, 15 MIN post dose), 81%; in the test on TxB2 production (0.75 h, 45 MIN post dose), 36%; in the test with TxB2 production (1.25 h, 75 MIN post dose), 33%. For the same compound, the inhibition at 0.1 mg/kg was 29% in the test on TxB2 production (0.25 h, 15 MIN post dose) and 22% in the test with TxB2 production (0.5 h, 30 MIN post dose).
In the case of `Cc1c(Cn2ccnc2)oc2ccc(C(=O)O)cc12`, the inhibition at 0.3 mg/kg in the test with TxB2 production (2 min, 2 MIN post dose) turned out to be 92%; with TxB2 production (0.25 h, 15 MIN post dose), 83%; in the test with TxB2 production (0.75 h, 45 MIN post dose) it was 65%; in the test with TxB2 production (1.25 h, 75 MIN post dose), 51%. In addition, the inhibition at 0.1 mg/kg in the test with TxB2 production (0.25 h, 15 MIN post dose) worked out at 47%; with TxB2 production (0.5 h, 30 MIN post dose), 37%.
Regarding `O=C(O)c1ccc2oc(Cn3ccnc3)c(Br)c2c1`, the inhibition at 0.3 mg/kg with TxB2 production (2 min, 2 MIN post dose) was found to be 87%; in the test on TxB2 production (0.25 h, 15 MIN post dose), 84%; with TxB2 production (0.75 h, 45 MIN post dose) it was 65%; in the test with TxB2 production (1.25 h, 75 MIN post dose), 41%. Further, the inhibition at 0.1 mg/kg was 52% with TxB2 production (0.25 h, 15 MIN post dose) and 33% in the test on TxB2 production (0.5 h, 30 MIN post dose).
On to `O=C(O)c1ccc2oc(Cn3ccnc3)c(Cl)c2c1`, for which the inhibition at 0.3 mg/kg stood at 98% in the test on TxB2 production (2 min, 2 MIN post dose); 97% in the test on TxB2 production (0.25 h, 15 MIN post dose); 93% in the test on TxB2 production (0.75 h, 45 MIN post dose); 86% in the test with TxB2 production (1.25 h, 75 MIN post dose). The inhibition at 0.1 mg/kg in the test on TxB2 production (0.25 h, 15 MIN post dose) amounted to 88%; with TxB2 production (0.5 h, 30 MIN post dose), 82%.
Consider `Cc1c(Cn2ccnc2)n(C)c2ccc(C(=O)O)cc12`, for which the inhibition at 0.3 mg/kg was determined as 99% in the test with TxB2 production (2 min, 2 MIN post dose); 95% with TxB2 production (0.25 h, 15 MIN post dose); 93% with TxB2 production (0.75 h, 45 MIN post dose); 81% with TxB2 production (1.25 h, 75 MIN post dose). Moreover, the inhibition at 0.1 mg/kg with TxB2 production (0.25 h, 15 MIN post dose) stood at 85%; in the test with TxB2 production (0.5 h, 30 MIN post dose) it was 84%.
Turning to `Cc1c(Cc2cccnc2)ccc2ccc(C(=O)O)cc12`, the inhibition at 0.3 mg/kg in the test with TxB2 production (2 min, 2 MIN post dose) came out at 99%; in the test with TxB2 production (0.25 h, 15 MIN post dose) it was 98%; in the test with TxB2 production (0.75 h, 45 MIN post dose), 95%; with TxB2 production (1.25 h, 75 MIN post dose), 97%. Besides, the inhibition at 0.1 mg/kg was determined as 95% in the test on TxB2 production (0.25 h, 15 MIN post dose) and 92% with TxB2 production (0.5 h, 30 MIN post dose).
With 15-hydroperoxyarachidonic acid, the “inhibition of PGI2 production” value in the test on prostacyclin synthetase is recorded as “completely inhibited”.
Consider `CC(=O)Oc1ccccc1C(=O)O` [aspirin], for which the “inhibitory activity in vitro against a variety of aggregating agents” value in test [1] was “show inhibitory activity”. Moreover, the “protection from the lethal effect of arachidonic acid injection” value in test [2] was “protect the rabbit from the lethal effect”.
In the case of `O=C1C(CC[S+]([O-])c2ccccc2)C(=O)N(c2ccccc2)N1c1ccccc1` (centres unmarked) [sulphinpyrazone], the “inhibitory activity in vitro against a variety of aggregating agents” value in test [1] is reported as “show inhibitory activity”. Moreover, the “protection from the lethal effect of arachidonic acid injection” value in test [2] was “protect the rabbit from the lethal effect”. For the same compound, the “prevention of platelet aggregation in extra corporeal loop of the abdominal aorta” value in the test on aggregation of platelets is recorded as “prevent the aggregation of platelets”.
